The subject of this test is zebrafish larva (Danio rerio). As to the kind of experiment: Neuroprotection in PTZ-induced neurotoxicity model, AChE activity in zebrafish larvae. Type of test: in vivo. The settings on record: 5 dpf larvae, 10 μM, 5 mM PTZ for 6 hours. On the procedure:
The objective of this assay was to analyze the protective effect of compound 2 and of the resveratrol (RES) control in a model of neurotoxicity induced by the neurotoxin pentylenetetrazole (PTZ). As an experimental model, the zebrafish larva (Danio rerio) was used to study the effect of the compounds on acetylcholinesterase activity (AChE) in larvae at 5 days post-fertilization (dpf).
Zebrafish embryos were seeded in 50 ml of dilution water (AD) in a Petri dish and grown to 5 dpf (larval stage). […] Next, the larvae were transferred using a Pasteur pipette to a 24-well microplate, so that each well contained five larvae, making ten replicates per condition. First, the pre-treatment of the 5 dpf larvae was performed. […] After this incubation period, all of the larvae were examined, and it was determined that the general state of the larvae was totally normal, without any visible anomaly or anomalous behavior. […]
Determination of AChE levels. […] In addition, the determination of total protein of each experimental group was carried out according to the technical study protocol (Quantification of protein by BCA, as a normalization process). Finally, the AChE levels determined in the control group were taken as a reference measurement and deemed to be 100%.

With `CCCCCCCC(=O)OCC1OC(Oc2cc(O)cc(/C=C/c3ccc(O)cc3)c2)C(O)C(O)C1O` [Compound 2, trans-resveratrol-3-O-(6′-O-octanoyl)-β-D-glucopyranoside], the “AChE activity decrease induced by PTZ” value was “significantly prevents the decrease in AChE activity”.

These data come from US11213536B2, “Acylated compounds for the treatment of ocular pathologies” (CONSEJO SUPERIOR DE INVESTIGACIONES CIENTÍFICAS, priority 2016, dated 2022).
